Data reported in patent US7563793B2, “Pyrrolo[1,2-a]quinoxalin-5-(4H)-yl)sulfonyls and carbonyls and their use as estrogenic agents” (Wyeth, priority 2004, dated 2009).

Columns and labels:
ER/Nf-kB = test: ER/NF-κB luciferase reporter assay in Ad5-wt-ER infected HAECT-1 cells (IL-1β induced); assay type: cell-based, human; settings: for IC50: Homo sapiens, HAECT1; for ER/Nf-kB Efficacy: relative to maximal inhibition observed with E2
Procedure: After four hours, cells were washed with EBM-BSA and incubated overnight in the same medium. […] After two hours, cells were washed and incubated at 34° C. for 1 hour. […] Control (no ER infection) cells were processed as above without Ad5-wt-hERα virus infection. […] Cells were subsequently washed with 300 μl of Dulbecco's phosphate buffered saline and lysed in 50 μl of Cell Culture Lysis Reagent (Promega). Luciferase was determined on a Wallac Victor^2 Luminometer (Gaithersburg, Md.) using 10 μl of lysate and mixing with 100 lμof Promega Luciferase Assay reagent. […] For IC50 and EC50 calculations, mean IL-6, luciferase or CK values versus log10 of the compound concentration were fitted to a four parameter logistic equation. The IC50/EC50 value, ‘Hill slope’, upper and lower limits of the curve were iteratively estimated.

creatine kinase = test: Creatine kinase assay in Ad5-wt-ER infected HAECT-1 cells; assay type: cell-based, human; settings: Homo sapiens; for EC50: HAECT1, CK stimulation, N/O = activity not observed at concentrations tested, read-out: CK IC50; for Emax: HAECT1, relative to maximal stimulation observed with E2, read-out: CK Efficacy
How it was run: (§1)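 Ad5-wt-hERα-infected HAECT-1 cells, with uninfected cells as controls; after infection, cells were washed, incubated overnight in EBM-BSA, then held at 34 °C for 1 h. Luciferase was read by luminometry on cell lysates. IC50/EC50 came from four-parameter logistic fits of mean IL-6, luciferase or CK values versus log10 compound concentration.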

IL-6 = IL-6 assay (ELISA) in Ad5-wt-ER infected HAECT-1 cells (IL-1β induced); assay type: cell-based, human; settings: Homo sapiens; for IC50: HAECT1; for Emax: HAECT1, relative to maximal inhibition observed with E2, read-out: IL-6 Efficacy
How it was run: as §1

| SMILES | IC50 (ER/Nf-kB) | EC50 (creatine kinase) | melting point | IC50 (IL-6) | ER/Nf-kB Efficacy (ER/Nf-kB) | Emax (creatine kinase) | Emax (IL-6) |
| --- | --- | --- | --- | --- | --- | --- | --- |
| CC[C@H]1c2ccc(C#N)n2-c2cc(F)c(F)cc2N1S(=O)(=O)c1ccc(O)c(C)c1 [Example 11B, (S)-4-ethyl-7,8-difluoro-5-[(4-hydroxy-3-methylphenyl)sulfonyl]-4,5-dihydropyrrolo[1,2-a]quinoxaline-1-carbonitrile] | 332 nM | 830 nM | 208 to 210 °C |  | 96% | 96% |  |
| CCC1c2ccc(C#N)n2-c2cc(F)c(F)cc2N1S(=O)(=O)c1ccc(O)c(C)c1 (stereo not shown) [Example 12, 4-ethyl-7,8-difluoro-5-[(4-hydroxy-3-methylphenyl)sulfonyl]-4,5-dihydropyrrolo[1,2-a]quinoxaline-1-carbonitrile] | 1820 nM |  | 201 to 203 °C |  | 91% |  |  |
| CCC1c2ccc(C#N)n2-c2ccc(F)cc2N1S(=O)(=O)c1ccc(O)c(C)c1 (stereo not shown) [Example 33, 4-ethyl-7-fluoro-5-[(4-hydroxy-3-methylphenyl)sulfonyl]-4,5-dihydropyrrolo[1,2-a]quinoxaline-1-carbonitrile] | 1320 nM |  | 192 to 194 °C |  | 208% |  |  |
| CCC1c2ccc(C#N)n2-c2ccc(F)cc2N1S(=O)(=O)c1ccc(O)cc1 (stereo not shown) [Example 35, 4-ethyl-7-fluoro-5-[(4-hydroxyphenyl)sulfonyl]-4,5-dihydropyrrolo[1,2-a]quinoxaline-1-carbonitrile] | 962 nM | 107 nM | 169 to 171 °C |  | 72% | 19% |  |
| CCC1c2ccc(C#N)n2-c2ccc(C(F)(F)F)cc2N1S(=O)(=O)c1ccc(O)c(C)c1 (stereo not shown) [Example 59, 4-ethyl-5-[(4-hydroxy-3-methylphenyl)sulfonyl]-7-(trifluoromethyl)-4,5-dihydropyrrolo[1,2-a]quinoxaline-1-carbonitrile] | 9700 nM | 3000 nM | 194 to 196 °C |  | 75% | -13% |  |
| CCC1c2cccn2-c2cc(O)c(F)cc2N1S(=O)(=O)c1ccc(O)c(C)c1 (stereo not shown) [Example 74, 4-ethyl-7-fluoro-5-[(4-hydroxy-3-methylphenyl)sulfonyl]-4,5-dihydropyrrolo[1,2-a]quinoxalin-8-ol] | 157 nM |  | 194 to 196 °C |  | 75% |  |  |
| CC[C@H]1c2cccn2-c2ccc(Br)cc2N1S(=O)(=O)c1ccc(O)cc1 [Example 77, 4-{[(4S)-7-bromo-4-ethylpyrrolo[1,2-a]quinoxalin-5(4H)-yl]sulfonyl}phenol] | 11 nM | 212 nM | 187 to 189 °C |  | 186% | 39% |  |

Further lines, with some results ahead:

| IC50 (ER/Nf-kB) | EC50 (creatine kinase) | melting point | IC50 (IL-6) | SMILES | ER/Nf-kB Efficacy (ER/Nf-kB) | Emax (creatine kinase) | Emax (IL-6) |
| --- | --- | --- | --- | --- | --- | --- | --- |
|  | 205 nM | 153 to 154 °C | 41 nM | CCC1c2cccn2-c2ccc(F)cc2N1S(=O)(=O)c1cccc(O)c1 (stereo not shown) [Example 87, 3-[(4-ethyl-7-fluoropyrrolo[1,2-a]quinoxalin-5(4H)-yl)sulfonyl]phenol] |  | 33% | 112% |
|  | 9.9 nM | 189 to 191 °C | 150 nM | CC[C@H]1c2ccc(C#N)n2-c2ccc(Br)cc2N1S(=O)(=O)c1ccc(O)cc1 [Example 89, (4S)-7-bromo-4-ethyl-5-[(4-hydroxyphenyl)sulfonyl]-4,5-dihydropyrrolo[1,2-a]quinoxaline-1-carbonitrile] |  | 7% | 188% |
|  |  | 182 to 185 °C | 1460 nM | CC[C@@H]1c2ccc(C#N)n2-c2ccc(Br)cc2N1S(=O)(=O)c1ccc(O)cc1 [Example 91, (4R)-7-bromo-4-ethyl-5-[(4-hydroxyphenyl)sulfonyl]-4,5-dihydropyrrolo[1,2-a]quinoxaline-1-carbonitrile] |  | -4% | 86% |
|  | 99 nM | 143 to 145 °C | 14 nM | CCC1c2cccn2-c2c(cc(F)c(F)c2F)N1S(=O)(=O)c1cccc(O)c1 (stereo not shown) [Example 100, 3-[(4-ethyl-7,8,9-trifluoropyrrolo[1,2-a]quinoxalin-5(4H)-yl)sulfonyl]phenol] |  | 42% | 193% |
|  | 34 nM | 204 to 207 °C | 101 nM | CC[C@H]1c2ccc(C#N)n2-c2cc(F)c(F)cc2N1S(=O)(=O)c1ccc(OS(N)(=O)=O)c(C)c1 [Example 103, 4-{[(4S)-1-cyano-4-ethyl-7,8-difluoropyrrolo[1,2-a]quinoxalin-5(4H)-yl]sulfonyl}-2-methylphenyl sulfamate] |  | -18% | 93% |
|  | 20 nM | 165 to 167 °C | 3 nM | CCC1c2cccn2-c2ccc(F)cc2N1C(=O)c1ccc(O)cc1 (stereo not shown) [Example 118, 4-[(4-ethyl-7-fluoropyrrolo[1,2-a]quinoxalin-5(4H)-yl)carbonyl]phenol] |  | 32% | 95% |
